Test results published in ChEMBL document CHEMBL5291721, “A preclinical secondary pharmacology resource illuminates target-adverse drug reaction associations of marketed drugs” (Nat Commun, 2023).

What was measured:
Adenosine receptor A2a = Adenosine receptor A2a (Homo sapiens, UniProt P29274)
Progesterone receptor = target: T1, Progesterone receptor (Homo sapiens, UniProt P06401); assay type: functional
T1 sequence (P06401 whole entry): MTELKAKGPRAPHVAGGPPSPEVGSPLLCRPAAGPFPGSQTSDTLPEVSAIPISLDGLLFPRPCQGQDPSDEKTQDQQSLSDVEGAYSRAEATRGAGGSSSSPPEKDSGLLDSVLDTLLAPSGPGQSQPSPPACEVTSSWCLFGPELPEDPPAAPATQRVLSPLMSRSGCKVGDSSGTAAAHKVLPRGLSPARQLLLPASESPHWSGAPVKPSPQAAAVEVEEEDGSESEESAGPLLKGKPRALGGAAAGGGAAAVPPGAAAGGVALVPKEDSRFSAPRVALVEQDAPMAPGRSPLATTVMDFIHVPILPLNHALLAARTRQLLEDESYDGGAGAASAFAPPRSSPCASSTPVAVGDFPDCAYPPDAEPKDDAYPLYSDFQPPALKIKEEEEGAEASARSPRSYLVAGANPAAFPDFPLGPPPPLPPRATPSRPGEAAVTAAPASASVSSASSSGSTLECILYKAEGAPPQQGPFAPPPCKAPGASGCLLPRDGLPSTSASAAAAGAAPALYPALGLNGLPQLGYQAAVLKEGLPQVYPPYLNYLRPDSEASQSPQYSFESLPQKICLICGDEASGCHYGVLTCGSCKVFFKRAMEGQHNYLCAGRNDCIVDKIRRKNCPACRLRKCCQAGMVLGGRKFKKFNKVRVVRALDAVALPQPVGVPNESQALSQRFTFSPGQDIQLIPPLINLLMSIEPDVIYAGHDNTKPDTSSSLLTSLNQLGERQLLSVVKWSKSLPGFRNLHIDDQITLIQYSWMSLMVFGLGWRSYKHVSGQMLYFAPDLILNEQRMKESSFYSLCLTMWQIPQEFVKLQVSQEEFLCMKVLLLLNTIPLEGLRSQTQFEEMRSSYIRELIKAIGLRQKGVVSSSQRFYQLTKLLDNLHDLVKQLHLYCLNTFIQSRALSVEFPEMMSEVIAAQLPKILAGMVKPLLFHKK

Motilin receptor = Motilin receptor (Homo sapiens, UniProt O43193)
Motilin receptor, sequence (O43193 whole entry): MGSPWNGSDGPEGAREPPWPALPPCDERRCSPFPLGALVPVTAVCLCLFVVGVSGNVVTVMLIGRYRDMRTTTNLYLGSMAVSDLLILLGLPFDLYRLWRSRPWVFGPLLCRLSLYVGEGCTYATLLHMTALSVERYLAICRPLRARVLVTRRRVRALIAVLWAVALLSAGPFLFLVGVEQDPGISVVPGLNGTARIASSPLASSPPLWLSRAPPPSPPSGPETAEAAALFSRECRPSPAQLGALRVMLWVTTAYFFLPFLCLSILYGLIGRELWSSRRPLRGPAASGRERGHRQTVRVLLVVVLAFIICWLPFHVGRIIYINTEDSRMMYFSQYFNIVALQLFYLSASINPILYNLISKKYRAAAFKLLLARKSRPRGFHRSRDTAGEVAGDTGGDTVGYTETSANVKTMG

[1] = target: 3',5'-cyclic-AMP phosphodiesterase 4D (Homo sapiens, UniProt Q08499); assay type: functional
3',5'-cyclic-AMP phosphodiesterase 4D, sequence (Q08499 whole entry): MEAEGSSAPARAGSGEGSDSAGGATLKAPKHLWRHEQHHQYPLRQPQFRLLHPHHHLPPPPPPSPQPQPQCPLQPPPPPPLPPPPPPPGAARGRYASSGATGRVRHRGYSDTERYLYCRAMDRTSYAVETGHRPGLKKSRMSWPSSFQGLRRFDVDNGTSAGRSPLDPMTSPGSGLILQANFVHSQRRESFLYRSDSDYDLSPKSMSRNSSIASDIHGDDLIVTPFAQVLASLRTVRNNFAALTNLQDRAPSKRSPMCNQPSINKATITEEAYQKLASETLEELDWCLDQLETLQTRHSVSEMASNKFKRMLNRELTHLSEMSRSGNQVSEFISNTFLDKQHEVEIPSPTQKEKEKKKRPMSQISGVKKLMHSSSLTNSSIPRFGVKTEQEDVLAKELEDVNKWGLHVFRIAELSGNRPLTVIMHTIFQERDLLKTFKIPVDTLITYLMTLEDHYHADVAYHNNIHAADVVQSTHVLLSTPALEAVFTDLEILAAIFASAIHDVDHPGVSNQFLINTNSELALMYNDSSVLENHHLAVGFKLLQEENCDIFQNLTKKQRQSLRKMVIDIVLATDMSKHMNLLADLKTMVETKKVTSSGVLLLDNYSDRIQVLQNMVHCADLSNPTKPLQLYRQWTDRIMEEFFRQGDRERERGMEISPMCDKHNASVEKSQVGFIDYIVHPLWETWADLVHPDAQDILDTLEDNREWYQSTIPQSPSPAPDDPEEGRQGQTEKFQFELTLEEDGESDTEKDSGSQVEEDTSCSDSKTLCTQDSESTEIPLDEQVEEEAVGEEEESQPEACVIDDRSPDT

Melanocortin receptor 4 = Melanocortin receptor 4 (Homo sapiens, UniProt P32245)
Melanocortin receptor 4, sequence (P32245 whole entry): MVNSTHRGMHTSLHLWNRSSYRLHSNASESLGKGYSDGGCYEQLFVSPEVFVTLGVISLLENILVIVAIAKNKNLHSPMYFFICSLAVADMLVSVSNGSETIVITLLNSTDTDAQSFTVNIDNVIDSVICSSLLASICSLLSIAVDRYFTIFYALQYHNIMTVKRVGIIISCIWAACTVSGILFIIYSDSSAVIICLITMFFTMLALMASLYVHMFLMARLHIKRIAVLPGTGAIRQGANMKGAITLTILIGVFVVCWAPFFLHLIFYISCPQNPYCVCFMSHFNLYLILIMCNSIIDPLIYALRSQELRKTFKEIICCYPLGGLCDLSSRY

[2] = target: Growth hormone secretagogue receptor type 1 (Homo sapiens, UniProt Q92847)
Growth hormone secretagogue receptor type 1, sequence (Q92847 whole entry): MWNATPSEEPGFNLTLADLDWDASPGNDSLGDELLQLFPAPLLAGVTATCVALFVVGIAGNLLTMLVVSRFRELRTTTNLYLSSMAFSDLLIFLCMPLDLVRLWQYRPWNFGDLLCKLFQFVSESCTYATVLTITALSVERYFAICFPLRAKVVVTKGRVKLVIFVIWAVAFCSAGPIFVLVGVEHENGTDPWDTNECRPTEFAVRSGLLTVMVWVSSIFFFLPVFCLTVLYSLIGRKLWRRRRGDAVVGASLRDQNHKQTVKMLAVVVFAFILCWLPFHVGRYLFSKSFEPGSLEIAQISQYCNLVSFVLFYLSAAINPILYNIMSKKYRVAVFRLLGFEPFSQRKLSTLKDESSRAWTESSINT

[3] = target: 5-hydroxytryptamine receptor 2B (Homo sapiens, UniProt P41595); assay type: functional, cell-based
5-hydroxytryptamine receptor 2B, sequence (P41595 whole entry): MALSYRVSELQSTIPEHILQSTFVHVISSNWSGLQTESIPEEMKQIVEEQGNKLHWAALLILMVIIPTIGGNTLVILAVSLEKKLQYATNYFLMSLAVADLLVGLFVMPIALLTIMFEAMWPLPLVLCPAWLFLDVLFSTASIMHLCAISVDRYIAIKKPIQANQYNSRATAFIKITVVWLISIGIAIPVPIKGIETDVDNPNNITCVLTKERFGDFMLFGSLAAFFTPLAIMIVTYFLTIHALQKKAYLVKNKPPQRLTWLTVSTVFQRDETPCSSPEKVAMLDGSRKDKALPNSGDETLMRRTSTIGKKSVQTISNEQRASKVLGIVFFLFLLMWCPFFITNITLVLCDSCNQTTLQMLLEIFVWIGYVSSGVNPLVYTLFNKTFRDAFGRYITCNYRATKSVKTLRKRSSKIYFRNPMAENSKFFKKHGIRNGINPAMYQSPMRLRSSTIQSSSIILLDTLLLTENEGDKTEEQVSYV

Adenosine receptor A3 = target: T2, Adenosine receptor A3 (Homo sapiens, UniProt P0DMS8)
T2 sequence (P0DMS8 whole entry): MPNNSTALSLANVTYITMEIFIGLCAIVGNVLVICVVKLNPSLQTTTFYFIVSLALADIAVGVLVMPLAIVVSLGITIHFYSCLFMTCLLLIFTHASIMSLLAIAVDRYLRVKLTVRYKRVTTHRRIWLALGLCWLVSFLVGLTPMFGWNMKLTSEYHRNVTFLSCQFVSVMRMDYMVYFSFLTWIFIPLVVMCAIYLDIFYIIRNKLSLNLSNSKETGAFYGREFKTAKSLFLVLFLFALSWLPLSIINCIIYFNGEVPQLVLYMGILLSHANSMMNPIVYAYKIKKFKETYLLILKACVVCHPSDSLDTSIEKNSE

[4] = target: T3, 5-hydroxytryptamine receptor 2C (Homo sapiens, UniProt P28335)
T3 sequence (P28335 whole entry): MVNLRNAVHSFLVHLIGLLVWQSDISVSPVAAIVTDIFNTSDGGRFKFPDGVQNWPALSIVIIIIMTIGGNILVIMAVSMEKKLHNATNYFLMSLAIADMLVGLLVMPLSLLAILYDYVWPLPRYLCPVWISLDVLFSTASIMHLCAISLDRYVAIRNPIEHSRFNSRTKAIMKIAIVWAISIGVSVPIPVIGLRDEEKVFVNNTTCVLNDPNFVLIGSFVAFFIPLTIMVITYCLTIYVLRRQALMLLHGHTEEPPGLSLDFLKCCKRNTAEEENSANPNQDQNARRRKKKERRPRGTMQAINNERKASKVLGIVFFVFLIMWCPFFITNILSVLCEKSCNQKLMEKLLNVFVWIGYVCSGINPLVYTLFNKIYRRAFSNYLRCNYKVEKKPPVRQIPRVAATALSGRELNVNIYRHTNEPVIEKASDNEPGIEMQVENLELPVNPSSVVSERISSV

[5] = target: Gamma-aminobutyric acid receptor subunit alpha-1 (Rattus norvegicus, UniProt P62813); assay type: functional
Gamma-aminobutyric acid receptor subunit alpha-1, sequence (P62813 whole entry): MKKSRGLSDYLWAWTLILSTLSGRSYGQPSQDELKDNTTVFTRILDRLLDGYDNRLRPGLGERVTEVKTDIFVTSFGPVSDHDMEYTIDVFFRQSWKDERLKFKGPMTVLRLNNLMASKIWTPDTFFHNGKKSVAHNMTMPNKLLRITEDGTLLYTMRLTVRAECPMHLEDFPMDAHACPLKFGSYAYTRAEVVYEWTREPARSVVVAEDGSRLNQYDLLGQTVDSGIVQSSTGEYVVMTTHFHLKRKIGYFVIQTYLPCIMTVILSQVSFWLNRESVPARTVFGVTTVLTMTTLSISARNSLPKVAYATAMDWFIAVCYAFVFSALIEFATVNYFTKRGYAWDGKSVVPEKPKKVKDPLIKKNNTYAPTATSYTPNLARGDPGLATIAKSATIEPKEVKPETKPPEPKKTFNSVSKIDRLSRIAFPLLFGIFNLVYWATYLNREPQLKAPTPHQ

Vasopressin V1a receptor = Vasopressin V1a receptor (Homo sapiens, UniProt P37288)
Vasopressin V1a receptor, sequence (P37288 whole entry): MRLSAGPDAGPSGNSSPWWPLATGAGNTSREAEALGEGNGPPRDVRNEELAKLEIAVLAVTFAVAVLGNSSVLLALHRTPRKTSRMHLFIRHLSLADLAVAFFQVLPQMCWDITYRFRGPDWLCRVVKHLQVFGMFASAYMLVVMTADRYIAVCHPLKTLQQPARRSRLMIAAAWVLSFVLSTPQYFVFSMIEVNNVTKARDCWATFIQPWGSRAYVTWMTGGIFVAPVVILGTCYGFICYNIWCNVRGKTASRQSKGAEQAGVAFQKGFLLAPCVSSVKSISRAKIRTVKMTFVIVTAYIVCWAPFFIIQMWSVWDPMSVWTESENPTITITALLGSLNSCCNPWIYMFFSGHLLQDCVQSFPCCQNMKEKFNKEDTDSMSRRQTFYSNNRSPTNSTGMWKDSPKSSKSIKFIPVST

[6] = target: T4, Equilibrative nucleoside transporter 1 (Homo sapiens, UniProt Q99808)
T4 sequence (Q99808 whole entry): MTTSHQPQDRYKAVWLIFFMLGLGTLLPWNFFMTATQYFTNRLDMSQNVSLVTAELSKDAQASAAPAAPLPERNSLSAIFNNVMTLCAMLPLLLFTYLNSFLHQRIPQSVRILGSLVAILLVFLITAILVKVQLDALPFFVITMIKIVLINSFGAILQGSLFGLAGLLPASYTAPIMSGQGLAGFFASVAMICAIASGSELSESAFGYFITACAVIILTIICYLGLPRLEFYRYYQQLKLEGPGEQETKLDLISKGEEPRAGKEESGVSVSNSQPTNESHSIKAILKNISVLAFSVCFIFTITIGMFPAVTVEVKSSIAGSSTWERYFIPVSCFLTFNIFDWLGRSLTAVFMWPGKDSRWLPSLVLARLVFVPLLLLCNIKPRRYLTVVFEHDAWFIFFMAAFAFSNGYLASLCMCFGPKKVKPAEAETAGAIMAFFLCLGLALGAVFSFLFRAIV

Cannabinoid receptor 1 = Cannabinoid receptor 1 (Homo sapiens, UniProt P21554); assay type: functional, cell-based
Cannabinoid receptor 1, sequence (P21554 whole entry): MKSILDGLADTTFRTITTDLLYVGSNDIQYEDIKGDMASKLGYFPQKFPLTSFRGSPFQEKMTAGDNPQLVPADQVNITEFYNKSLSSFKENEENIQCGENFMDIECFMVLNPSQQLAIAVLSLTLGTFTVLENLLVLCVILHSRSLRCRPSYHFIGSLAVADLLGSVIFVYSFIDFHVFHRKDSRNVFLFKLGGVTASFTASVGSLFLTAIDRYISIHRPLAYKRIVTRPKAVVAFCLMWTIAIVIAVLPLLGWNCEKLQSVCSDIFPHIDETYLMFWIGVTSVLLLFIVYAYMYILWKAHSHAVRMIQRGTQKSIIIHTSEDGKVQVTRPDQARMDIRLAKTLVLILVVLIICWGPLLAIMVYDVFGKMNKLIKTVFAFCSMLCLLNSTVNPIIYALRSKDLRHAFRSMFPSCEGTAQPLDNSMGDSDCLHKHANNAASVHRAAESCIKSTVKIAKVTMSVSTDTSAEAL

Histamine H2 receptor = Histamine H2 receptor (Homo sapiens, UniProt P25021); assay type: functional, cell-based
Histamine H2 receptor, sequence (P25021 whole entry): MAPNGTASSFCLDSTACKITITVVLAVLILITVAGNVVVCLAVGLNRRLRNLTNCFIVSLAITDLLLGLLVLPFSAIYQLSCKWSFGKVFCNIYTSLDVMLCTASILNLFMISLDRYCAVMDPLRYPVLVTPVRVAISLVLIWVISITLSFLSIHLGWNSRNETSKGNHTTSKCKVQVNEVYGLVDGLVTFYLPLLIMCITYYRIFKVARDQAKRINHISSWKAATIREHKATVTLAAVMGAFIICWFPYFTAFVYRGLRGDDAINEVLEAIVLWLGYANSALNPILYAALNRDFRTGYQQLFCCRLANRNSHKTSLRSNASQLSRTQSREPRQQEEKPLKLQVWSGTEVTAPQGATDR
Also: assay procedure not described here.

Adenosine receptor A2a, sequence (P29274 whole entry): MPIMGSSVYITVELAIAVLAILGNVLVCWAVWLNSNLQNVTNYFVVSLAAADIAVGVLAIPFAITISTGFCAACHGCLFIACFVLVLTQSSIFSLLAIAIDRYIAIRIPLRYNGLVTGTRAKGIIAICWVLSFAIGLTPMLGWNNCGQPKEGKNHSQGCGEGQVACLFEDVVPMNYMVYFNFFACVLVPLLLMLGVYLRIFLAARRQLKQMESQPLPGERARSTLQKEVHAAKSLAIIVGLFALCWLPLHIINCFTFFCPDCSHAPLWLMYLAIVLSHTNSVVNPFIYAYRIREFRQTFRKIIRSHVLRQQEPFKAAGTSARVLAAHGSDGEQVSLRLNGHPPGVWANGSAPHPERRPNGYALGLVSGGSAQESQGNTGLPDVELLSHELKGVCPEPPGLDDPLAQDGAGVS

| SMILES | AC50 (Adenosine receptor A2a) [µM] | AC50 (Progesterone receptor) [µM] | AC50 (Motilin receptor) [µM] | AC50 [1] [µM] | AC50 (Melanocortin receptor 4) [µM] | AC50 [2] [µM] | AC50 [3] [µM] | AC50 (Adenosine receptor A3) [µM] | AC50 [4] [µM] | AC50 [5] [µM] | AC50 (Vasopressin V1a receptor) [µM] | AC50 [6] [µM] | AC50 (Cannabinoid receptor 1) [µM] | AC50 (Histamine H2 receptor) [µM] |
| --- | --- | --- | --- | --- | --- | --- | --- | --- | --- | --- | --- | --- | --- | --- |
| N[C@@H](CC(=O)N1CCn2c(nnc2C(F)(F)F)C1)Cc1cc(F)c(F)cc1F [SITAGLIPTIN] | > 30 | > 30 | > 30 | > 30 | > 10 | > 30 | > 30 | > 30 | > 30 | > 30 | > 30 | > 30 | > 30 |  |
| CC(N)C12CC3CC(CC(C3)C1)C2 (configuration not stated) [RIMANTADINE] | > 10 | > 10 | > 10 | > 30 | > 10 | > 10 | > 10 | > 10 | > 30 | > 10 |  | > 10 |  | > 10 |
| COc1cc2nc(N3CCN(C(=O)C4CCCO4)CC3)nc(N)c2cc1OC (configuration not stated) [TERAZOSIN] | > 30 |  | > 10 | > 30 | > 30 | > 30 | > 10 | > 30 | > 30 | > 10 | > 10 | > 30 | > 30 | > 10 |
| Nc1ccc(S(=O)(=O)Nc2nccs2)cc1 [SULFATHIAZOLE] | > 30 |  | > 10 | > 30 | > 30 | > 30 | > 10 | > 30 | > 30 | > 10 | > 10 | > 30 | > 30 | > 10 |
| CN(C)CCc1c[nH]c2ccc(Cn3cncn3)cc12 [RIZATRIPTAN] | > 30 |  | > 10 | > 30 | > 30 | > 30 | 14 | > 30 |  | > 30 | > 10 | > 30 | > 30 | > 30 |
| CCCN(CCC)C(=O)Cc1c(-c2ccc(Cl)cc2)nc2ccc(Cl)cn12 [ALPIDEM] | > 30 | > 30 | > 30 | 13 | > 30 | > 30 | > 30 | 11.5 | > 30 | 0.0431 | > 30 | > 30 |  | > 30 |
| C[C@H]1c2cccc(O)c2C(=O)C2=C(O)[C@]3(O)C(=O)C(C(N)=O)=C(O)[C@@H](N(C)C)[C@@H]3[C@@H](O)[C@@H]21 [DOXYCYCLINE] | > 30 |  | > 10 | > 30 | > 30 | > 30 | > 10 | > 30 | > 30 | > 10 | > 10 | > 30 | > 30 | > 10 |
| CN1C(C(=O)Nc2ccccn2)=C(O)c2ccccc2S1(=O)=O [PIROXICAM] | > 10 | > 10 | > 10 | > 30 | > 10 | > 10 | > 10 | > 10 | > 30 | > 10 | > 10 | > 10 |  | > 30 |
| CCCC(CCC)C(=O)O [VALPROIC ACID] | > 30 |  | > 10 | > 30 | > 30 | > 30 | > 10 | > 30 | 11 | > 10 | > 30 | > 30 |  |  |
| CC(C(=O)O)c1ccc2c(c1)[nH]c1ccc(Cl)cc12 (configuration not stated) [CARPROFEN] | > 30 | > 30 | > 30 | 5.2 | > 10 | > 30 | > 10 | > 30 | > 30 | > 10 | > 30 | > 30 |  | > 10 |
| COc1ccc(CC2c3cc(OC)c(OC)cc3CC[N+]2(C)CCC(=O)OCCCCCOC(=O)CC[N+]2(C)CCc3cc(OC)c(OC)cc3C2Cc2ccc(OC)c(OC)c2)cc1OC (configuration not stated) | > 30 | > 30 | > 30 | > 30 | > 30 | 11.2 | > 30 | > 30 | 6.3 | > 30 | > 30 | > 30 |  | > 30 |
| O=C1CN(/N=C/c2ccc(-c3ccc([N+](=O)[O-])cc3)o2)C(O)=N1 [DANTROLENE] | > 30 | > 10 | > 10 | > 30 | > 10 | > 10 | > 10 | > 30 | > 30 | > 10 | > 10 | > 10 |  | > 10 |
| C=C[C@H]1C[N@@]2CC[C@H]1C[C@@H]2[C@@H](O)c1ccnc2ccc(OC)cc12 [QUINIDINE] | > 30 |  | > 10 | > 30 | > 30 | > 30 | 1.16 | > 30 | > 10 |  | > 30 | > 30 | > 30 | > 10 |
| O=C1CCc2cc(OCCCCc3nnnn3C3CCCCC3)ccc2N1 [CILOSTAZOL] | > 30 | > 30 | > 30 | 23.4 | > 30 | > 30 | > 30 | 18.2 | > 30 | > 30 |  | 30 | > 30 | > 30 |
